Source: ChEMBL document CHEMBL5506031, “Design, Synthesis, Bioactive Evaluation, and Molecular Dynamics Simulation of Novel 4H-Pyrano[3,2-c]pyridine Analogues as Potential Sterol 14α-Demethylase (CYP51) Inhibitors” (J Med Chem, 2024)
≈ marks a conversion by molar mass, not a printed value. Calls of active or inactive are those of the source. No cut-off for these calls is given here.

system: Sclerotinia sclerotiorum; experiment: Fungicidal activity against Sclerotinia sclerotiorum assessed as fungal inhibitory rate at 16 ug/ml relative to control; assay type: functional; details: not given

| Structure (SMILES) | inhibition at 16 µg/mL |
| --- | --- |
| N#CC1=C(N)OC2=C(CN(C(=O)c3cccs3)C/C2=C\c2ccco2)C1c1ccco1 (centres undefined) | 58.5% |
| COC(=O)C1=C(N)OC2=C(CN(C(=O)c3ccco3)C/C2=C\c2ccc(Br)s2)C1c1ccc(Br)s1 (centres undefined) | 71.6% |
| COC(=O)C1=C(N)OC2=C(CN(C(=O)c3cccs3)C/C2=C\c2ccc(Br)o2)C1c1ccc(Br)o1 (centres undefined) | 80% |
| COC(=O)C1=C(N)OC2=C(CN(C(=O)c3ccco3)C/C2=C\c2ccco2)C1c1ccco1 (centres undefined) | 85% |
| N#CC1=C(N)OC2=C(CN(C(=O)c3cccs3)C/C2=C\c2ccc(Br)s2)C1c1ccc(Br)s1 (centres undefined) | 48.9% |
| COC(=O)C1=C(N)OC2=C(CN(C)C/C2=C\c2ccc(Br)s2)C1c1ccc(Br)s1 (centres undefined) | 38.3% |
| COC(=O)C1=C(N)OC2=C(CN(C)C/C2=C\c2ccc(Br)o2)C1c1ccc(Br)o1 (centres undefined) | 77.4% |
| Cc1ccc(/C=C2\CN(C)CC3=C2OC(N)=C(C#N)C3c2ccc(C)o2)o1 (centres undefined) | 81.6% |
| CN1CC2=C(OC(N)=C(C#N)C2c2ccc(Cl)s2)/C(=C/c2ccc(Cl)s2)C1 (centres undefined) | 64.9% |

system: Colletotrichum lagenaria; experiment: Fungicidal activity against Colletotrichum lagenarium assessed as fungal inhibitory rate at 16 ug/ml relative to control; assay type: functional; details: not given

| Structure (SMILES) | inhibition at 16 µg/mL |
| --- | --- |
| N#CC1=C(N)OC2=C(CN(C(=O)c3cccs3)C/C2=C\c2ccco2)C1c1ccco1 (centres undefined) | 57% |
| COC(=O)C1=C(N)OC2=C(CN(C(=O)c3ccco3)C/C2=C\c2ccc(Br)s2)C1c1ccc(Br)s1 (centres undefined) | 69.3% |
| COC(=O)C1=C(N)OC2=C(CN(C(=O)c3cccs3)C/C2=C\c2ccc(Br)o2)C1c1ccc(Br)o1 (centres undefined) | 78.3% |
| COC(=O)C1=C(N)OC2=C(CN(C(=O)c3ccco3)C/C2=C\c2ccco2)C1c1ccco1 (centres undefined) | 86.8% |
| N#CC1=C(N)OC2=C(CN(C(=O)c3cccs3)C/C2=C\c2ccc(Br)s2)C1c1ccc(Br)s1 (centres undefined) | 44.3% |
| COC(=O)C1=C(N)OC2=C(CN(C)C/C2=C\c2ccc(Br)s2)C1c1ccc(Br)s1 (centres undefined) | 33.6% |
| Cc1ccc(/C=C2\CN(C)CC3=C2OC(N)=C(C#N)C3c2ccc(C)o2)o1 (centres undefined) | 84.8% |
| CN1CC2=C(OC(N)=C(C#N)C2c2ccc(Cl)s2)/C(=C/c2ccc(Cl)s2)C1 (centres undefined) | 66% |

system: Botrytis cinerea; experiment: Fungicidal activity against Botrytis cinerea assessed as fungal inhibitory rate at 16 ug/ml relative to control; assay type: functional; details: not given

| Structure (SMILES) | inhibition at 16 µg/mL |
| --- | --- |
| N#CC1=C(N)OC2=C(CN(C(=O)c3cccs3)C/C2=C\c2ccco2)C1c1ccco1 (centres undefined) | 100% |
| COC(=O)C1=C(N)OC2=C(CN(C(=O)c3ccco3)C/C2=C\c2ccc(Br)s2)C1c1ccc(Br)s1 (centres undefined) | 100% |
| COC(=O)C1=C(N)OC2=C(CN(C(=O)c3cccs3)C/C2=C\c2ccc(Br)o2)C1c1ccc(Br)o1 (centres undefined) | 100% |
| COC(=O)C1=C(N)OC2=C(CN(C(=O)c3ccco3)C/C2=C\c2ccco2)C1c1ccco1 (centres undefined) | 100% |
| COC(=O)C1=C(N)OC2=C(CN(C)C/C2=C\c2ccc(Br)s2)C1c1ccc(Br)s1 (centres undefined) | 31.6% |
| COC(=O)C1=C(N)OC2=C(CN(C)C/C2=C\c2ccc(Br)o2)C1c1ccc(Br)o1 (centres undefined) | 60% |
| Cc1ccc(/C=C2\CN(C)CC3=C2OC(N)=C(C#N)C3c2ccc(C)o2)o1 (centres undefined) | 65.6% |
| CN1CC2=C(OC(N)=C(C#N)C2c2ccc(Cl)s2)/C(=C/c2ccc(Cl)s2)C1 (centres undefined) | 48.5% |

system: Penicillium digitatum; experiment: Fungicidal activity against Penicillium digitatum assessed as fungal inhibitory rate at 16 ug/ml relative to control; assay type: functional; details: not given

| Structure (SMILES) | inhibition at 16 µg/mL |
| --- | --- |
| N#CC1=C(N)OC2=C(CN(C(=O)c3cccs3)C/C2=C\c2ccco2)C1c1ccco1 (centres undefined) | 51.7% |
| COC(=O)C1=C(N)OC2=C(CN(C(=O)c3ccco3)C/C2=C\c2ccc(Br)s2)C1c1ccc(Br)s1 (centres undefined) | 64.3% |
| COC(=O)C1=C(N)OC2=C(CN(C(=O)c3cccs3)C/C2=C\c2ccc(Br)o2)C1c1ccc(Br)o1 (centres undefined) | 73.1% |
| COC(=O)C1=C(N)OC2=C(CN(C(=O)c3ccco3)C/C2=C\c2ccco2)C1c1ccco1 (centres undefined) | 78.4% |
| N#CC1=C(N)OC2=C(CN(C(=O)c3cccs3)C/C2=C\c2ccc(Br)s2)C1c1ccc(Br)s1 (centres undefined) | 42.2% |
| COC(=O)C1=C(N)OC2=C(CN(C)C/C2=C\c2ccc(Br)s2)C1c1ccc(Br)s1 (centres undefined) | 22.5% |
| Cc1ccc(/C=C2\CN(C)CC3=C2OC(N)=C(C#N)C3c2ccc(C)o2)o1 (centres undefined) | 74% |
| CN1CC2=C(OC(N)=C(C#N)C2c2ccc(Cl)s2)/C(=C/c2ccc(Cl)s2)C1 (centres undefined) | 46.8% |

system: Fusarium oxysporum; experiment: Fungicidal activity against Fusarium oxysporum assessed as fungal inhibitory rate at 16 ug/ml relative to control; assay type: functional; details: not given

| Structure (SMILES) | inhibition at 16 µg/mL |
| --- | --- |
| N#CC1=C(N)OC2=C(CN(C(=O)c3cccs3)C/C2=C\c2ccco2)C1c1ccco1 (centres undefined) | 52.7% |
| COC(=O)C1=C(N)OC2=C(CN(C(=O)c3ccco3)C/C2=C\c2ccc(Br)s2)C1c1ccc(Br)s1 (centres undefined) | 67.5% |
| COC(=O)C1=C(N)OC2=C(CN(C(=O)c3cccs3)C/C2=C\c2ccc(Br)o2)C1c1ccc(Br)o1 (centres undefined) | 80.9% |
| COC(=O)C1=C(N)OC2=C(CN(C(=O)c3ccco3)C/C2=C\c2ccco2)C1c1ccco1 (centres undefined) | 87.1% |
| N#CC1=C(N)OC2=C(CN(C(=O)c3cccs3)C/C2=C\c2ccc(Br)s2)C1c1ccc(Br)s1 (centres undefined) | 41% |
| COC(=O)C1=C(N)OC2=C(CN(C)C/C2=C\c2ccc(Br)s2)C1c1ccc(Br)s1 (centres undefined) | 20.3% |
| COC(=O)C1=C(N)OC2=C(CN(C)C/C2=C\c2ccc(Br)o2)C1c1ccc(Br)o1 (centres undefined) | 45.6% |
| Cc1ccc(/C=C2\CN(C)CC3=C2OC(N)=C(C#N)C3c2ccc(C)o2)o1 (centres undefined) | 48.5% |
| CN1CC2=C(OC(N)=C(C#N)C2c2ccc(Cl)s2)/C(=C/c2ccc(Cl)s2)C1 (centres undefined) | 34.5% |

system: Botrytis cinerea; experiment: Fungicidal activity against Botrytis cinerea assessed as fungal growth reduction; assay type: functional, organism-based; details: not given

| Structure (SMILES) | EC50 |
| --- | --- |
| N#CC1=C(N)OC2=C(CN(C(=O)c3cccs3)C/C2=C\c2ccco2)C1c1ccco1 (centres undefined) | 1.34 µg/mL (≈ 3.1 µM) |
| COC(=O)C1=C(N)OC2=C(CN(C(=O)c3ccco3)C/C2=C\c2ccc(Br)s2)C1c1ccc(Br)s1 (centres undefined) | 0.976 µg/mL (≈ 1.53 µM) |
| COC(=O)C1=C(N)OC2=C(CN(C(=O)c3cccs3)C/C2=C\c2ccc(Br)o2)C1c1ccc(Br)o1 (centres undefined) | 0.61 µg/mL (≈ 0.98 µM) |
| N#CC1=C(N)OC2=C(CN(C(=O)c3cccs3)C/C2=C\c2ccc(Br)s2)C1c1ccc(Br)s1 (centres undefined) | 2.71 µg/mL (≈ 4.36 µM) |

system: Botrytis cinerea; experiment: Induction of morphological changes in Botrytis cinerea assessed as irregular mycelia at 0.5 ug/ml incubated for 6 days by SEM analysis; assay type: functional, organism-based; details: dose 0.5 µg/ml, time 6.0 day

| Structure (SMILES) | Activity |
| --- | --- |
| COC(=O)C1=C(N)OC2=C(CN(C(=O)c3ccco3)C/C2=C\c2ccco2)C1c1ccco1 (centres undefined) | Active |

system: Botrytis cinerea; experiment: Induction of morphological changes in Botrytis cinerea assessed as uneven mycelia at 0.5 ug/ml incubated for 6 days by SEM analysis; assay type: functional, organism-based; details: dose 0.5 µg/ml, time 6.0 day

| Structure (SMILES) | Activity |
| --- | --- |
| COC(=O)C1=C(N)OC2=C(CN(C(=O)c3ccco3)C/C2=C\c2ccco2)C1c1ccco1 (centres undefined) | Active |

system: Botrytis cinerea; experiment: Induction of morphological changes in Botrytis cinerea assessed as tangled mycelia at 0.5 ug/ml incubated for 6 days by SEM analysis; assay type: functional, organism-based; details: dose 0.5 µg/ml, time 6.0 day

| Structure (SMILES) | Activity |
| --- | --- |
| COC(=O)C1=C(N)OC2=C(CN(C(=O)c3ccco3)C/C2=C\c2ccco2)C1c1ccco1 (centres undefined) | Active |

system: Botrytis cinerea; experiment: Induction of morphological changes in Botrytis cinerea assessed as crinkly mycelia at 0.5 ug/ml incubated for 6 days by SEM analysis; assay type: functional, organism-based; details: dose 0.5 µg/ml, time 6.0 day

| Structure (SMILES) | Activity |
| --- | --- |
| COC(=O)C1=C(N)OC2=C(CN(C(=O)c3ccco3)C/C2=C\c2ccco2)C1c1ccco1 (centres undefined) | Active |

system: Botrytis cinerea; experiment: Induction of morphological changes in Botrytis cinerea assessed as thin cell wall at 0.5 ug/ml incubated for 6 days by TEM analysis; assay type: functional, organism-based; details: dose 0.5 µg/ml, time 6.0 day

| Structure (SMILES) | Activity |
| --- | --- |
| COC(=O)C1=C(N)OC2=C(CN(C(=O)c3ccco3)C/C2=C\c2ccco2)C1c1ccco1 (centres undefined) | Active |

system: Botrytis cinerea; experiment: Induction of morphological changes in Botrytis cinerea assessed as thin cell membrane at 0.5 ug/ml incubated for 6 days by TEM analysis; assay type: functional, organism-based; details: dose 0.5 µg/ml, time 6.0 day

| Structure (SMILES) | Activity |
| --- | --- |
| COC(=O)C1=C(N)OC2=C(CN(C(=O)c3ccco3)C/C2=C\c2ccco2)C1c1ccco1 (centres undefined) | Active |

system: Botrytis cinerea; experiment: Induction of morphological changes in Botrytis cinerea assessed as cracked cell structure at 0.5 ug/ml incubated for 6 days by TEM analysis; assay type: functional, organism-based; details: dose 0.5 µg/ml, time 6.0 day

| Structure (SMILES) | Activity |
| --- | --- |
| COC(=O)C1=C(N)OC2=C(CN(C(=O)c3ccco3)C/C2=C\c2ccco2)C1c1ccco1 (centres undefined) | Active |

system: not listed separately; experiment: Inhibition of Botrytis cinerea CYP51 by ELISA; details: not given

| IC50 | Structure (SMILES) |
| --- | --- |
| 1.649 µg/mL (≈ 3.82 µM) | N#CC1=C(N)OC2=C(CN(C(=O)c3cccs3)C/C2=C\c2ccco2)C1c1ccco1 (centres undefined) |
| 1.138 µg/mL (≈ 1.78 µM) | COC(=O)C1=C(N)OC2=C(CN(C(=O)c3ccco3)C/C2=C\c2ccc(Br)s2)C1c1ccc(Br)s1 (centres undefined) |
| 0.748 µg/mL (≈ 1.2 µM) | COC(=O)C1=C(N)OC2=C(CN(C(=O)c3cccs3)C/C2=C\c2ccc(Br)o2)C1c1ccc(Br)o1 (centres undefined) |
| 0.377 µg/mL (≈ 0.841 µM) | COC(=O)C1=C(N)OC2=C(CN(C(=O)c3ccco3)C/C2=C\c2ccco2)C1c1ccco1 (centres undefined) |
| 3.031 µg/mL (≈ 4.88 µM) | N#CC1=C(N)OC2=C(CN(C(=O)c3cccs3)C/C2=C\c2ccc(Br)s2)C1c1ccc(Br)s1 (centres undefined) |

system: Botrytis cinerea; experiment: Inhibition of Botrytis cinerea CYP51 by fluorescent quenching analysis; details: dose <= 16.0 µg/ml

| inhibition | Structure (SMILES) |
| --- | --- |
| Dose-Dependent Effect | COC(=O)C1=C(N)OC2=C(CN(C(=O)c3ccco3)C/C2=C\c2ccco2)C1c1ccco1 (centres undefined) |
